Twelve compounds from paper PMC7531004, “Discovery of gramicidin A analogues with altered activities by multidimensional screening of a one-bead-one-compound library” (Nature Communications, 2020) can be followed below.

Each structure is given as a SMILES string. Where a SMILES comes first, the peptide text is derived from it. [ ]: non-standard residue; d: D form. The star is where a group is joined. NHCH2CH2OH = OCCN*; For = O=C*

The subject of data set [1] is P388 mouse leukemia cells. Particulars: 92 h. A digest of the protocol:
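Peptide stocks diluted 250× in growth medium; P388 cells 1 × 10^4 cells/mL final; 37 °C, 5% CO2, 92 h. WST-1 + 1-methoxy PMS, 4 h, A415. Output: % viability.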

Data set [2] can be described thus: H+/Na+ transport assay of bead-derived peptides (one-point).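 Note: relative to parent gramicidin A activity set to 1.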 The class given is biochemical. Details: key: relative activity; mean of two control wells = 1.00. Particulars: bead-derived peptide solution, EYPC/EYPG LUVs. A digest of the protocol: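 Values are normalized fluorescence, with Triton X-100 defining 100% and untreated LUVs 0%, and the two control wells averaging 1.00. Vesicles carried 1.0 mM pyranine and included egg yolk phosphatidylglycerol. Peptides were incubated with them 30 min at room temperature.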

Data set [3] relates to Streptococcus pyogenes SSI-9. Put plainly: Antibacterial activity assay of bead-derived peptides (three concentrations). In kind it is cell-based. Details: key: +++: inhibition by the 640-fold diluted peptide solution; ++: inhibition by the 160-fold diluted solution; +: inhibition by the 40-fold diluted solution; -: no inhibition. Conditions: S. pyogenes, bead-derived peptide solution, three concentrations. In short, it runs like this:
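First, each peptide stock was diluted 4- and 16-fold in DMSO; next, the three solutions were mixed with S. pyogenes SSI-9 suspension (2 × 10^5 CFU) in cation-adjusted Mueller Hinton Broth plus 5% laked horse blood; finally, plates stood 18 h at 37 °C before checking for grown-cell precipitation.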

On to `CNC(=O)C[C@@H](NC(=O)[C@@H](NC(=O)[C@H](NC(=O)[C@H](C)NC(=O)[C@H](NC(=O)[C@H](C)NC(=O)CNC(=O)[C@@H](NC=O)C(C)C)C(C)C)C(C)C)C(C)C)C(=O)N[C@@H](Cc1c[nH]c2ccccc12)C(=O)N[C@H](CC(C)C)C(=O)N[C@@H](Cc1c[nH]c2ccccc12)C(=O)N[C@H](CC(C)C)C(=O)N[C@@H](Cc1c[nH]c2ccccc12)C(=O)N[C@@H](C(=O)N[C@@H](Cc1c[nH]c2ccccc12)C(=O)NCCO)C(C)C` [compound 6899] (For-VGA[dV]A[dV]V[dD](NHMe)W[dL]W[dL]W[dV]W-NHCH2CH2OH), for which, in data set [1], the cell viability/% amounted to 100.0%. The “H+/Na+ transport activity normalized against the value of 1 (1.00)” value (“H+/Na+ transport activity normalized” for short) in data set [2] worked out at 1.12. For the same compound, in data set [3], the antibacterial activity entry was “-”.
For `CC(C)C[C@@H](NC(=O)[C@H](C)NC(=O)[C@H](NC(=O)[C@H](C)NC(=O)CNC(=O)[C@@H](NC=O)C(C)C)C(C)C)C(=O)N[C@H](C(=O)N[C@H](CC(C)C)C(=O)N[C@@H](Cc1c[nH]c2ccccc12)C(=O)N[C@H](CC(C)C)C(=O)N[C@@H](Cc1c[nH]c2ccccc12)C(=O)N[C@@H](C(=O)N[C@@H](Cc1c[nH]c2ccccc12)C(=O)N[C@@H](C(=O)N[C@@H](Cc1c[nH]c2ccccc12)C(=O)NCCO)[C@H](C)O)C(C)C)C(C)C` [compound 6943] (For-VGA[dV]A[dL]V[dL]W[dL]W[dV]W[dT]W-NHCH2CH2OH), in that order: 100.0%, 1.02 and “-”.
In turn, `CC(C)C[C@@H](NC(=O)[C@H](C)NC(=O)CNC(=O)[C@@H](NC=O)C(C)C)C(=O)N[C@@H](C)C(=O)N[C@H](CC(C)C)C(=O)N[C@H](C(=O)N[C@@H](C(=O)N[C@@H](Cc1c[nH]c2ccccc12)C(=O)N[C@@H](C(=O)N[C@@H](Cc1c[nH]c2ccccc12)C(=O)N[C@@H](C(=O)N[C@@H](Cc1c[nH]c2ccccc12)C(=O)N[C@H](CC(C)C)C(=O)N[C@@H](Cc1c[nH]c2ccccc12)C(=O)NCCO)C(C)C)[C@H](C)O)C(C)C)C(C)C` [compound 6950] (For-VGA[dL]A[dL]V[dV]W[dT]W[dV]W[dL]W-NHCH2CH2OH) came in with a cell viability/% in data set [1] of 100.0%. For the same compound, the “H+/Na+ transport activity normalized” value in data set [2] came out at 1.06. Further, in data set [3], the antibacterial activity entry is on record as “-”.
For `CC(C)C[C@@H](NC(=O)[C@H](C)NC(=O)[C@H](NC(=O)[C@H](C)NC(=O)CNC(=O)[C@@H](NC=O)C(C)C)[C@H](C)O)C(=O)N[C@H](C(=O)N[C@H](CC(C)C)C(=O)N[C@@H](Cc1c[nH]c2ccccc12)C(=O)N[C@@H](C(=O)N[C@@H](Cc1c[nH]c2ccccc12)C(=O)N[C@@H](C(=O)N[C@@H](Cc1c[nH]c2ccccc12)C(=O)N[C@H](CC(C)C)C(=O)N[C@@H](Cc1c[nH]c2ccccc12)C(=O)NCCO)C(C)C)[C@H](C)O)C(C)C` [compound 7015] (For-VGA[dT]A[dL]V[dL]W[dT]W[dV]W[dL]W-NHCH2CH2OH), in that order: 100.0%, 1.07 and “-”.
In turn, `CC(C)C[C@@H](NC(=O)[C@H](C)NC(=O)CNC(=O)[C@@H](NC=O)C(C)C)C(=O)N[C@@H](C)C(=O)N[C@H](CC(C)C)C(=O)N[C@H](C(=O)N[C@@H](C(=O)N[C@@H](Cc1c[nH]c2ccccc12)C(=O)N[C@@H](C(=O)N[C@@H](Cc1c[nH]c2ccccc12)C(=O)N[C@H](CC(C)C)C(=O)N[C@@H](Cc1c[nH]c2ccccc12)C(=O)N[C@H](CC(C)C)C(=O)N[C@@H](Cc1c[nH]c2ccccc12)C(=O)NCCO)[C@H](C)O)C(C)C)C(C)C` [compound 7067] (For-VGA[dL]A[dL]V[dV]W[dT]W[dL]W[dL]W-NHCH2CH2OH) gave a cell viability/% in data set [1] of 100.0%. Besides, the “H+/Na+ transport activity normalized” value in data set [2] was 1.02. In addition, the antibacterial activity result in data set [3] is on record as “-”.
Consider `CC(C)C[C@@H](NC(=O)[C@H](C)NC(=O)CNC(=O)[C@@H](NC=O)C(C)C)C(=O)N[C@@H](C)C(=O)N[C@H](CC(C)C)C(=O)N[C@H](C(=O)N[C@@H](C(=O)N[C@@H](Cc1c[nH]c2ccccc12)C(=O)N[C@@H](C(=O)N[C@@H](Cc1c[nH]c2ccccc12)C(=O)N[C@@H](C(=O)N[C@@H](Cc1c[nH]c2ccccc12)C(=O)N[C@@H](C(=O)N[C@@H](Cc1c[nH]c2ccccc12)C(=O)NCCO)C(C)C)C(C)C)C(C)C)C(C)C)C(C)C` [compound 7100] (For-VGA[dL]A[dL]V[dV]W[dV]W[dV]W[dV]W-NHCH2CH2OH), for which the cell viability/% in data set [1] amounted to 100.0%. In addition, in data set [2], the “H+/Na+ transport activity normalized” value stood at 1.07. Moreover, in data set [3], the antibacterial activity entry was “-”.
On to `CC(C)C[C@@H](NC(=O)[C@H](C)NC(=O)[C@H](NC(=O)[C@H](C)NC(=O)CNC(=O)[C@@H](NC=O)C(C)C)C(C)C)C(=O)N[C@H](C(=O)N[C@@H](C(=O)N[C@@H](Cc1c[nH]c2ccccc12)C(=O)N[C@@H](C(=O)N[C@@H](Cc1c[nH]c2ccccc12)C(=O)N[C@H](CC(C)C)C(=O)N[C@@H](Cc1c[nH]c2ccccc12)C(=O)N[C@@H](C(=O)N[C@@H](Cc1c[nH]c2ccccc12)C(=O)NCCO)C(C)C)C(C)C)[C@H](C)O)C(C)C` [compound 7131] (For-VGA[dV]A[dL]V[dT]W[dV]W[dL]W[dV]W-NHCH2CH2OH), for which the cell viability/% in data set [1] was determined as 100.0%. In addition, the “H+/Na+ transport activity normalized” value in data set [2] was 1.08. Further, the antibacterial activity result in data set [3] is “-”.
In the case of `CC(C)C[C@@H](NC(=O)[C@H](C)NC(=O)[C@H](NC(=O)[C@H](C)NC(=O)CNC(=O)[C@@H](NC=O)C(C)C)[C@H](C)O)C(=O)N[C@H](C(=O)N[C@H](CC(C)C)C(=O)N[C@@H](Cc1c[nH]c2ccccc12)C(=O)N[C@@H](C(=O)N[C@@H](Cc1c[nH]c2ccccc12)C(=O)N[C@H](CC(C)C)C(=O)N[C@@H](Cc1c[nH]c2ccccc12)C(=O)N[C@@H](C(=O)N[C@@H](Cc1c[nH]c2ccccc12)C(=O)NCCO)C(C)C)[C@H](C)O)C(C)C` [compound 7135] (For-VGA[dT]A[dL]V[dL]W[dT]W[dL]W[dV]W-NHCH2CH2OH), in data set [1], the cell viability/% came to 100.0%. Also, the “H+/Na+ transport activity normalized” value in data set [2] turned out to be 1.09. The antibacterial activity result in data set [3] is “-”.
In turn, `CC(C)C[C@@H](NC(=O)[C@H](C)NC(=O)[C@H](NC(=O)[C@H](C)NC(=O)CNC(=O)[C@@H](NC=O)C(C)C)C(C)C)C(=O)N[C@H](C(=O)N[C@@H](C(=O)N[C@@H](Cc1c[nH]c2ccccc12)C(=O)N[C@H](CC(C)C)C(=O)N[C@@H](Cc1c[nH]c2ccccc12)C(=O)N[C@@H](C(=O)N[C@@H](Cc1c[nH]c2ccccc12)C(=O)N[C@H](CC(C)C)C(=O)N[C@@H](Cc1c[nH]c2ccccc12)C(=O)NCCO)C(C)C)C(C)C)C(C)C` [compound 7146] (For-VGA[dV]A[dL]V[dV]W[dL]W[dV]W[dL]W-NHCH2CH2OH) registered a cell viability/% in data set [1] of 100.0%. Besides, in data set [2], the “H+/Na+ transport activity normalized” value is 1.17. For the same compound, in data set [3], the antibacterial activity entry is reported as “+”.
Taken in the same sequence, the figures for `CC(C)C[C@@H](NC(=O)[C@H](C)NC(=O)[C@H](NC(=O)[C@H](C)NC(=O)CNC(=O)[C@@H](NC=O)C(C)C)C(C)C)C(=O)N[C@H](C(=O)N[C@@H](C(=O)N[C@@H](Cc1c[nH]c2ccccc12)C(=O)N[C@@H](C(=O)N[C@@H](Cc1c[nH]c2ccccc12)C(=O)N[C@H](CC(C)C)C(=O)N[C@@H](Cc1c[nH]c2ccccc12)C(=O)N[C@H](CC(C)C)C(=O)N[C@@H](Cc1c[nH]c2ccccc12)C(=O)NCCO)C(C)C)C(C)C)C(C)C` [compound 7169] (For-VGA[dV]A[dL]V[dV]W[dV]W[dL]W[dL]W-NHCH2CH2OH) were 90.3%, 1.15 and “+”.
In data set [1], `CC(C)C[C@@H](NC(=O)[C@H](C)NC(=O)CNC(=O)[C@@H](NC=O)C(C)C)C(=O)N[C@@H](C)C(=O)N[C@@H](C(=O)N[C@H](C(=O)N[C@H](CC(C)C)C(=O)N[C@@H](Cc1c[nH]c2ccccc12)C(=O)N[C@H](CC(C)C)C(=O)N[C@@H](Cc1c[nH]c2ccccc12)C(=O)N[C@@H](C(=O)N[C@@H](Cc1c[nH]c2ccccc12)C(=O)N[C@H](CC(C)C)C(=O)N[C@@H](Cc1c[nH]c2ccccc12)C(=O)NCCO)C(C)C)C(C)C)C(C)C` [compound 7191] (For-VGA[dL]A[dV]V[dL]W[dL]W[dV]W[dL]W-NHCH2CH2OH) displayed a cell viability/% of 0.0%. In data set [2], the “H+/Na+ transport activity normalized” value amounted to 1.15. Besides, in data set [3], the antibacterial activity entry is “+”.
For the compound `CC(C)C[C@@H](NC(=O)[C@H](C)NC(=O)CNC(=O)[C@@H](NC=O)C(C)C)C(=O)N[C@@H](C)C(=O)N[C@H](CC(C)C)C(=O)N[C@H](C(=O)N[C@@H](C(=O)N[C@@H](Cc1c[nH]c2ccccc12)C(=O)N[C@@H](C(=O)N[C@@H](Cc1c[nH]c2ccccc12)C(=O)N[C@H](CC(C)C)C(=O)N[C@@H](Cc1c[nH]c2ccccc12)C(=O)N[C@H](CC(C)C)C(=O)N[C@@H](Cc1c[nH]c2ccccc12)C(=O)NCCO)C(C)C)C(C)C)C(C)C` [compound 7198] (For-VGA[dL]A[dL]V[dV]W[dV]W[dL]W[dL]W-NHCH2CH2OH), the cell viability/% in data set [1] is given as 16.1%. Also, in data set [2], the “H+/Na+ transport activity normalized” value is recorded as 1.09. Further, in data set [3], the antibacterial activity entry is “+”.
